Measured values reported in patent US11267814B2, “Compounds for bone growth” (OsteoQC Inc., priority 2013, dated 2022).

Legend:
MC3T3 osteoblast cells = experiment: Osteocalcin (OCN) secretion, bone formation marker, ELISA; assay type: cell-based, mouse; conditions: for IC100: Mus musculus
Protocol: Bone formation can also be assayed in vitro or in vivo using a serum marker for bone formation, osteocalcin (OCN), available from Biomedical Tecnhnologies, Inc. (Stoughton, Mass.). Following the manufacturer's protocol for the mouse osteocalcin EIA kit (described at the website www.btiinc.com/page/cata2.html#mouse_osteocalcin), bone formation in MC3T3 osteoblast cells was assayed by measuring the concentration of OCN.

[1] = tested on: MC3T3-E1 (mouse calvarial) osteoblast cells; experiment: Rescue of sclerostin inhibition of mineralization (total calcium); assay type: cell-based; conditions: calcium concentration; for IC100: Mus musculus, MC3T3-E1, read-out: Sclerostin Inhibition of Mineralization, improvement over sclerostin alone.
Protocol: Mineralization (crystalline calcium phosphate formation) represents an in vitro model of bone formation. […] Following the protocol described in Li et al., Compounds were assayed for their ability to rescue the inhibition of mineralization by sclerostin in MC3T3 osteoblast cells.

sclerostin = molecular target: T1, sclerostin (Homo sapiens, UniProt Q9BQB4); experiment: Modulation of sclerostin/Wnt activity (sclerostin inhibition assay): restoring Wnt3a signaling in the presence of sclerostin; assay type: cell-based; conditions: for Sclerostin Inhibition Assay; improvement over sclerostin alone.: IC100 class, Wnt3a signaling in human embryonic cells in presence of sclerostin
T1 construct: host or cells: human embryonic cells (reporter cells)
T1 sequence (Q9BQB4 24-213): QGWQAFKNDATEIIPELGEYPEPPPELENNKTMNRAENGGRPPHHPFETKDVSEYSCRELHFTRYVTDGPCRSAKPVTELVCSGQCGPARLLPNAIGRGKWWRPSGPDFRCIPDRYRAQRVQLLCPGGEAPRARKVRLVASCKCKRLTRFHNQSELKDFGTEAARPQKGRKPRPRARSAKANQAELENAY

[2] = IC100 class, OCN secreted from MC3T3 osteoblast cells treated with sclerostin
[3] = IC100 class, MC3T3 osteoblast cells treated with sclerostin
[4] = MC3T3 osteoblast cells, result in words

| Compound | IC100 (MC3T3 osteoblast cells; [2]) | IC100 [1, 3] | Sclerostin Inhibition Assay; improvement over sclerostin alone. (sclerostin) | OSTEOCALCIN (Bone Formation Marker) (MC3T3 osteoblast cells; [2]) | effect on OCN secretion (MC3T3 osteoblast cells; [4]) | Sclerostin Inhibition of Mineralization; improvement over sclerostin alone. [1, 3] | effect on mineralization [1, 4] | effect on Wnt3a signaling (sclerostin; human embryonic cells, result in words) |
| --- | --- | --- | --- | --- | --- | --- | --- | --- |
| OCCN(CCO)CCn1c2cc(O)ccc2c2ccnc(C(F)(F)F)c21 [Example 36, 2,2′-((2-(7-hydroxy-1-(trifluoromethyl)-9H-pyrido[3,4-b]indol-9-yl)ethyl)azanediyl)diethanol] | > 10 µM | > 10 µM | + (+ indicates an IC100 > 10 μM) |  |  |  |  |  |
| Cc1nc(O)cc2c1[nH]c1cc(O)ccc12 [Example 20, 1-methyl-9H-pyrido[3,4-b]indole-3,7-diol] | > 10 µM | > 10 µM | + (+ indicates an IC100 > 10 μM) |  |  |  |  |  |
| COc1ccc2c3ccnc(C)c3n(CCN3CCN(C(=O)OC(C)(C)C)CC3)c2c1 [Example 14, t-butyl 4-(2-(7-methoxy-1-methyl-9H-pyrido[3,4-b]indol-9-yl)ethyl) piperazine-1-carboxylate] | < 10 µM | < 10 µM | ++ (++ indicates an IC100 < 10 μM) |  |  |  |  |  |
| COc1ccc2c3ccnc(C(F)(F)F)c3n(CCN3CCN(C(=O)OC(C)(C)C)CC3)c2c1 [Example 24, t-butyl 4-(2-(7-methoxy-1-(trifluoromethyl)-9H-pyrido[3,4-b]indol-9-yl)ethyl)piperazine-1-carboxylate] | < 10 µM | < 10 µM | ++ (++ indicates an IC100 < 10 μM) |  |  |  |  |  |
| COc1ccc2c3ccnc(C)c3n(CCN3CCNCC3)c2c1 [Example 16, 7-methoxy-1-methyl-9-(2-(piperazin-1-yl)ethyl)-9H-pyrido[3,4-b]indole] | < 10 µM | < 10 µM | ++ (++ indicates an IC100 < 10 μM) |  |  |  |  |  |
| COc1ccc2c3ccnc(C)c3n(CCN(C)C)c2c1 [Example 7, 2-(7-methoxy-1-methyl-9H-pyrido[3,4-b]indol-9-yl)-N,N-dimethyl ethanamine] | < 10 µM | < 10 µM | ++ (++ indicates an IC100 < 10 μM) |  |  |  |  |  |
| COc1ccc2c(c1)[nH]c1c(C)nc(F)cc12 [Example 38, 3-fluoro-7-methoxy-1-methyl-9H-pyrido[3,4-b]indole] | < 10 µM | < 10 µM | ++ (++ indicates an IC100 < 10 μM) |  |  |  |  |  |
| COc1ccc2c3cc(F)nc(C)c3n(CCN3CCCCC3)c2c1 [Example 39, 3-fluoro-7-methoxy-1-methyl-9-(2-(piperidin-1-yl)ethyl)-9H-pyrido[3,4-b]indole] | < 10 µM | < 10 µM | ++ (++ indicates an IC100 < 10 μM) |  |  |  |  |  |
| CC(Cn1c2ccccc2c2ccccc21)N(C)C (stereo not drawn) [Example 2, 1-(9H-carbazol-9-yl)-N,N-dimethylpropan-2-amine] | > 10 µM | > 10 µM | + (+ indicates an IC100 > 10 μM) |  |  |  |  |  |
| Cc1nccc2c1[nH]c1cc(OC(C)(F)F)ccc12 [Example 43, 7-(1,1-difluoroethoxy)-1-methyl-9H-pyrido[3,4-b]indole] | < 10 µM | < 10 µM | ++ (++ indicates an IC100 < 10 μM) |  |  |  |  |  |
| COc1ccc2c3ccnc(C)c3n(C(C)CN(C)C)c2c1 (stereo not drawn) [Example 5, 2-(7-methoxy-1-methyl-9H-pyrido[3,4-b]indol-9-yl)-N,N-dimethylpropan-1-amine] | < 10 µM | < 10 µM | ++ (++ indicates an IC100 < 10 μM) |  |  |  |  |  |
| COc1ccc2c(c1)[nH]c1c(C)cncc12 [Example 41, 7-methoxy-4-methyl-5H-pyrido[4,3-b]indole] | > 10 µM | > 10 µM | + (+ indicates an IC100 > 10 μM) |  |  |  |  |  |
| CC1CN(CCn2c3cc(O)ccc3c3ccnc(C(F)(F)F)c32)CC(C)O1 (stereo not drawn) [Example 31, 9-(2-(2,6-dimethylmorpholino)ethyl)-1-(trifluoromethyl)-9H-pyrido[3,4-b]indol-7-ol] | < 10 µM | < 10 µM | ++ (++ indicates an IC100 < 10 μM) |  |  |  |  |  |
| COc1ccc2c3ccnc(C(F)(F)F)c3n(CCN3CCOCC3C)c2c1 (stereo not drawn) [Example 29, 4-(2-(7-methoxy-1-(trifluoromethyl)-9H-pyrido[3,4-b]indol-9-yl)ethyl)-3-methylmorpholine] | < 10 µM | < 10 µM | ++ (++ indicates an IC100 < 10 μM) |  |  |  |  |  |
| COc1ccc2c3ccnc(C(F)(F)F)c3n(CC(C)N3CCOCC3)c2c1 (stereo not drawn) [Example 28, 4-(1-(7-methoxy-1-(trifluoromethyl)-9H-pyrido[3,4-b]indol-9-yl)propan-2-yl)morpholine] | < 10 µM | < 10 µM | ++ (++ indicates an IC100 < 10 μM) |  |  |  |  |  |
| Oc1ccc2c(c1)[nH]c1c(C(F)(F)F)nccc12 [Example 23, 1-(trifluoromethyl)-9H-pyrido[3,4-b]indol-7-ol] | < 10 µM | < 10 µM | ++ (++ indicates an IC100 < 10 μM) |  |  |  |  |  |
| CC1COCCN1CCn1c2cc(O)ccc2c2ccnc(C(F)(F)F)c21 (stereo not drawn) [Example 30, 9-(2-(3-methylmorpholino)ethyl)-1-(trifluoromethyl)-9H-pyrido[3,4-b] indol-7-ol] | < 10 µM | < 10 µM | ++ (++ indicates an IC100 < 10 μM) |  |  |  |  |  |
| Oc1ccc2c3ccnc(C(F)(F)F)c3n(CCN3CCOCC3)c2c1 [Example 26, 9-(2-morpholinoethyl)-1-(trifluoromethyl)-9H-pyrido[3,4-b]indol-7-ol] | < 10 µM | < 10 µM | ++ (++ indicates an IC100 < 10 μM) |  |  |  |  |  |
| COc1ccc2c3ccnc(C(F)(F)F)c3n(CCNCCO)c2c1 [Example 34, 2-((2-(7-methoxy-1-(trifluoromethyl)-9H-pyrido[3,4-b]indol-9-yl)ethyl)amino)ethanol] | < 10 µM | < 10 µM | ++ (++ indicates an IC100 < 10 μM) |  |  |  |  |  |
| CCN(CC)CCCn1c2cc(OC)ccc2c2ccnc(C)c21 [Example 6, N,N-diethyl-3-(7-methoxy-1-methyl-9H-pyrido[3,4-b]indol-9-yl)propan-1-amine] | < 10 µM | < 10 µM | ++ (++ indicates an IC100 < 10 μM) |  |  |  |  |  |
| Cc1nccc2c1[nH]c1cc(OC(F)F)ccc12 [Example 45, 7-(difluoromethoxy)-1-methyl-9H-pyrido[3,4-b]indole] | < 10 µM | < 10 µM | ++ (++ indicates an IC100 < 10 μM) |  |  |  |  |  |
| Cc1nccc2c1[nH]c1cc(Cl)ccc12 [Example 44, 7-chloro-1-methyl-9H-pyrido[3,4-b]indole] | < 10 µM | < 10 µM | ++ (++ indicates an IC100 < 10 μM) |  |  |  |  |  |
| COc1ccc2c(c1)[nH]c1c(C)nc(O)cc12 [Example 19, 7-methoxy-1-methyl-9H-pyrido[3,4-b]indol-3-ol] | < 10 µM | < 10 µM | ++ (++ indicates an IC100 < 10 μM) |  |  |  |  |  |
| COc1ccc2c3ccnc(C(F)(F)F)c3n(CCN3CCCCC3)c2c1 [Example 33, 7-methoxy-9-(2-(piperidin-1-yl)ethyl)-1-(trifluoromethyl)-9H-pyrido[3,4-b]indole] | < 10 µM | < 10 µM | ++ (++ indicates an IC100 < 10 μM) |  |  |  |  |  |
| sclerostin protein: SOST (Sclerostin) protein; antagonizes Wnt3a signaling and inhibits mineralization and OCN secretion in the assays |  |  | − | − | nearly complete loss of OCN secretion | − | significant decrease in mineralization | antagonized Wnt3a signaling |
| Cc1nccc2c1[nH]c1cc(OCC3CC3)ccc12 [Example 46, 7-(cyclopropylmethoxy)-1-methyl-9H-pyrido[3,4-b]indole] | < 10 µM | < 10 µM | ++ (++ indicates an IC100 < 10 μM) |  |  |  |  |  |
| Cc1nccc2c1[nH]c1cc(OC3CC3)ccc12 [Example 42, 7-cyclopropoxy-1-methyl-9H-pyrido[3,4-b]indole] | > 10 µM | > 10 µM | + (+ indicates an IC100 > 10 μM) |  |  |  |  |  |
